In US9604960B2, “Aryl, heteroaryl, and heterocycle substituted tetrahydroisoquinolines and use thereof” (Albany Molecular Research, Inc., priority 2009, dated 2017):

Assays:
[1] = molecular target: hSERT (Homo sapiens (Human), UniProt P31645); experiment: SERT radioligand binding assay ([125I]RTI-55); conditions: (+)-enantiomers; membranes of HEK-293 cells expressing hSERT
Experimental: The medium was removed from the flasks and the cells rinsed with HBSS without Ca and without Mg. The cells were then incubated for 5-10 minutes in 10 mM Tris-Cl, pH 7.5, 5 mM EDTA before the cells were lifted with a combination of pipetting and scraping, as needed. The cell suspension was collected into centrifuge bottles and homogenized for 30 seconds with a Polytron homogenizer. The suspension was centrifuged for 30 minutes at 32,000×g, 4° C. The supernatant was decanted and the pellet resuspended and homogenized in 50 mM Tris-Cl, pH 7.5, 1 mM EDTA for 10 seconds. The suspension was then centrifuged again for 30 minutes at 32,000×g, 4° C. The supernatant was decanted and the pellet resuspended in 50 mM Tris-Cl, pH 7.5, 1 mM EDTA and briefly homogenized. A Bradford assay (Bio-rad) was performed and the membrane preparation diluted to 2 mg/ml with 50 mM Tris-Cl, pH 7.5, 1 mM EDTA. Aliquots were prepared, and then frozen and stored at −80° C.
Compounds were dissolved in 100% DMSO at a concentration 100 times the desired highest assay concentration, serially diluted 1:3 in 100% DMSO, and 0.4 μl/well of each solution was dispensed to a Nunc polypropylene, round bottom, 384-well plate. […] The plates were air-dried overnight, 12 μl/well of MicroScint scintillation fluid added, and the plates counted in a Trilux. […]

[2] = molecular target: hDAT (Homo sapiens (Human), UniProt Q01959); experiment: DAT radioligand binding assay ([125I]RTI-55); conditions: (+)-enantiomers; membranes of HEK-293 cells expressing hDAT
Experimental: Recombinant HEK-293 cells expressing either the hSERT, hDAT, or hNET proteins were harvested from T-175 flasks as follows. The medium was removed from the flasks and the cells rinsed with HBSS without Ca and without Mg. The cells were then incubated for 5-10 minutes in 10 mM Tris-Cl, pH 7.5, 5 mM EDTA before the cells were lifted with a combination of pipetting and scraping, as needed. The cell suspension was collected into centrifuge bottles and homogenized for 30 seconds with a Polytron homogenizer. The suspension was centrifuged for 30 minutes at 32,000×g, 4° C. The supernatant was decanted and the pellet resuspended and homogenized in 50 mM Tris-Cl, pH 7.5, 1 mM EDTA for 10 seconds. […]
Compounds were dissolved in 100% DMSO at a concentration 100 times the desired highest assay concentration, serially diluted 1:3 in 100% DMSO, and 0.4 μl/well of each solution was dispensed to a Nunc polypropylene, round bottom, 384-well plate. […] The plates were air-dried overnight, 12 μl/well of MicroScint scintillation fluid added, and the plates counted in a Trilux.
The raw data was normalized to percent inhibition using control wells defining 0% (DMSO only) and 100% (selective inhibitor) inhibition which were run on each plate. […] The radioligand concentration chosen for each assay corresponds to the Kd concentration determined through saturation binding analysis for each assay.

[3] = system: Male Swiss Webster mice; experiment: Mouse tail suspension assay; assay type: in vivo; conditions: acute administration, immobility
Experimental: Male Swiss Webster mice were housed 3-4 per cage in rooms maintained at a constant temperature (21-23° C.) and humidity (50±10%) on a 12-hour light/dark cycle. Animals had ad libitum access to water and food throughout studies. On the day of testing, they were brought into the testing room and allowed to acclimate for one hour. To begin testing, the tail was attached to a piece of tape which is then attached to a hook on the ceiling of a sound-attenuated chamber. Immobility was automatically recorded using the Med Associates software. Compounds were administered acutely at a fixed pretreatment interval before session.

hSERT, sequence (P31645 whole entry): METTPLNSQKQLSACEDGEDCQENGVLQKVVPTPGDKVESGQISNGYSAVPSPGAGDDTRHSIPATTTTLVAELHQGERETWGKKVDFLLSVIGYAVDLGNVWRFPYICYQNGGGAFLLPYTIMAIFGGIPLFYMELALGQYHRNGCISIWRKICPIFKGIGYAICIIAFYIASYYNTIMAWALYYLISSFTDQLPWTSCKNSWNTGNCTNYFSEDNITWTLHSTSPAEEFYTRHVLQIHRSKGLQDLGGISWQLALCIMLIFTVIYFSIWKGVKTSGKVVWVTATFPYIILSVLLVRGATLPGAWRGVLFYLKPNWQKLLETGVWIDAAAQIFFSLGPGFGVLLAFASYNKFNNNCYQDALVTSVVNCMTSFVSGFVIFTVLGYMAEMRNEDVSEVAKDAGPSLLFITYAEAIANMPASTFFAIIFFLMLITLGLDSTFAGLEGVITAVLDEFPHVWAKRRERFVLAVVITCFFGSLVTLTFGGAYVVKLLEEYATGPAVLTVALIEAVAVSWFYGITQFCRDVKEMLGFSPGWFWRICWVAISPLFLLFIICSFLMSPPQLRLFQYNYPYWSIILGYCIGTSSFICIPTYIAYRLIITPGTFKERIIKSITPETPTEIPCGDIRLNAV
hDAT, sequence (Q01959 whole entry): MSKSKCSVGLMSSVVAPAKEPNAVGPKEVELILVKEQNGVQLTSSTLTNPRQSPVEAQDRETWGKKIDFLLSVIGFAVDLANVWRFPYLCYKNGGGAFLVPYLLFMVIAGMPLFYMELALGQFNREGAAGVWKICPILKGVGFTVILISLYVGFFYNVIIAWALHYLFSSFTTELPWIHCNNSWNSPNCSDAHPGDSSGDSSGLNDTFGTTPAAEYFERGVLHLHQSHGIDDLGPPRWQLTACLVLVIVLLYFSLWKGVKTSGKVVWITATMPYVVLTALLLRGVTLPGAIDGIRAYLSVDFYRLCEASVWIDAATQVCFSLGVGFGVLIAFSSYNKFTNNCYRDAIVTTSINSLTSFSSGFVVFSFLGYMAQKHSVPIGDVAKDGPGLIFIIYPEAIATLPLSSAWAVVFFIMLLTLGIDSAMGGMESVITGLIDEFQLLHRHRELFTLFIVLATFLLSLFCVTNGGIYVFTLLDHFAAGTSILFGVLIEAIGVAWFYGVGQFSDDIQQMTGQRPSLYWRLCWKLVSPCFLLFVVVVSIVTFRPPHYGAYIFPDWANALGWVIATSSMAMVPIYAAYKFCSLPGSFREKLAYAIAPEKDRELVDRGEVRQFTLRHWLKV

SMILES	IC50 [1]	IC50 [2]	minimum effective dose in the mouse tail suspension study [3]
CC1(C)NCC(c2ccc(Cl)c(Cl)c2)c2ccc(-c3ccc(C(F)(F)F)nn3)cc21 (single isomer, unassigned) [Example 10, 4-(3,4-dichlorophenyl)-7-(6-(trifluoromethyl)pyridazin-3-yl)-1,1-dimethyl-1,2,3,4-tetrahydroisoquinoline]	26 nM	28 nM	
Clc1ccc(C2CNCc3cc(-c4ccc5ncnn5c4)ccc32)cc1Cl (stereo not drawn) [Example 36, 7-([1,2,4]triazolo[1,5-a]pyridin-6-yl)-4-(3,4-dichlorophenyl)-1,2,3,4-tetrahydroisoquinoline]			10 mg/kg
